Assay results: patent US7465452B2, “Tumor antigen” (Green Peptide Co., Ltd., priority 1999, dated 2008)

How the values were obtained:
Type in all cases: cell-based, human
GK-CTL subline (2-2-4) = assay: IFN-γ production by HLA-A2-restricted GK-CTL subline (2-2-4) with peptide-pulsed VA13 cells; details: VA13 cells transfected with HLA-A2, pulsed with 10 μM peptide 2 h
Description: (§1) In order to specify an HLA-A2 molecule-binding tumor antigen peptide derived from Lck, 24 different peptides were synthesized to introduce into VA 13 (HLA-A02), and an ability of enhancing INF-γ production by OK-CTL or GK-CTL subline (2-2-4) was tested in a manner similar to one used in Example 3.
(§2) In order to specify the tumor antigen peptide, 2×10^4 of VA13 cells transfected with HLA-A2 were pulsed with the peptide at a final concentration of 10 μM for 2 h. 1×10^4 of KE4-CTLs were then added and incubated for 18 h. 100 μl of the supernatant was collected to measure IFN-γ by ELISA.

OK-CTL = assay: IFN-γ production by HLA-A2-restricted OK-CTL with peptide-pulsed VA13 cells; details: for enhancement of IFN-γ production by OK-CTL: VA13 cells transfected with HLA-A2, pulsed with 10 μM peptide 2 h
Description: as §1, §2

KE4-CTL = assay: Activation of KE4-CTLs by Src family peptides incubated with SW620 cells (IFN-γ); details: 10 μg/ml peptide, SW620 target cells
Description: Based on these amino acid sequences of the peptides derived from Src family, Src511-519 (SEQ ID NO:4) (TFEYLQAFL), Yes508-516 (SEQ ID NO:5) (TFEYIQSFL), Fyn512-520 (SEQ ID NO:6) (TFEYLQSFL), Lyn489-497 (SEQ ID NO:7) (TFDYLQSVL), Hck503-511 (SEQ ID NO:8) (TFEYIQSVL), and Blk482-490 (SEQ ID NO:9) (TFEFLQSVL) were synthesized, and 10 μg/ml of each peptide was incubated with SW620 cells used as target cells, and then KE4-CTL cells used in Examples 1 and 2 were added and then cultured to assay a CTL-inducing activity using the amount of IFN-γ produced in the culture supernatant as the indicator. In addition, KE4 as a positive control was used for the target cell. Other methods were similar to those used in Example 4.

[1] = test system: HLA-A2402-restricted KE4-CTLs; assay: IFN-γ production by KE4-CTLs stimulated with peptide-pulsed ClR/A2402 cells (ELISA); details: ClR/A2402 cells pulsed with 10 μM peptide for 2 h, KE4-CTLs 18 h
Description: In order to specify the tumor antigen peptide capable of binding to the HLA-A24 molecule, which is derived from Lck, thirteen different peptides were synthesized and loaded onto ClR/A2402 so as to test the ability of enhancing the IFN-γ production by KE4-CTLs.
In order to specify the tumor antigen, ClR/A2402 (2×10^4) cells transfected with HLA-A2402 were pulsed with a peptide at a final concentration of 10 μM for 2 h. KE4-CTLs (1×10^4) were then added, and incubated for 18 h. 100 μl of the supernatant was collected to measure IFN-γ by ELISA.
On the other hand, the activity of Lck208-216 (SEQ ID NO:3) was detected at 100 nM or higher (FIG. 4).

Row | Sequence | enhancement of IFN-γ production by GK-CTL subline (2-2-4) (GK-CTL subline (2-2-4)) | enhancement of IFN-γ production by OK-CTL (OK-CTL) | ability to activate HLA-A24-restricted CTL relative to peptide derived from Lck (KE4-CTL) | also measured
1 | QIAEGMAFI (listed as Homo sapiens) [Lck347-355] | enhanced the production of IFN-γ | enhanced the production of IFN-γ | – | –
2 | TFEYIQSFL (listed as Homo sapiens) [Yes508-516] | – | – | comparable to a peptide derived from Lck or more | –
3 | SYEPSHDGDL [Lck7l-80] | – | – | – | activity of enhancing the IFN-γ production in CTLs [1]: had an activity of enhancing the IFN-γ production in CTLs
4 | TFEFLQSVL (listed as Homo sapiens) [Blk482-490] | – | – | comparable to a peptide derived from Lck or more | –
5 | EYMENGSLV [Lck3l7-325] | – | – | – | activity of enhancing the IFN-γ production in CTLs [1]: had an activity of enhancing the IFN-γ production in CTLs
6 | TFEYLQSFL (listed as Homo sapiens) [Fyn512-520] | – | – | comparable to a peptide derived from Lck or more | –
7 | QLQHQRLVRL (listed as Homo sapiens) [Lck294-303] | enhanced the production of IFN-γ | enhanced the production of IFN-γ | – | –
8 | LQDNLVIAL (listed as Homo sapiens) [Lck61-69] | enhanced the production of IFN-γ | enhanced the production of IFN-γ | – | activation of CTL subline at various peptide concentrations (OK-CTL; OK-CTL subline): in a dose-dependent manner
9 | TFEYLQAFL (listed as Homo sapiens) [Src511-519] | – | – | comparable to a peptide derived from Lck or more | –
10 | AFIEERNYI [Lck353-361] | – | – | – | activity of enhancing the IFN-γ production in CTLs [1]: had an activity of enhancing the IFN-γ production in CTLs
11 | KLLDMAAQI (listed as Homo sapiens) [Lck340-348] | enhanced the production of IFN-γ | enhanced the production of IFN-γ | – | –
12 | TFEYIQSVL (listed as Homo sapiens) [Hck503-511] | – | – | comparable to a peptide derived from Lck or more | –
13 | SVLEDFFTA (listed as Homo sapiens) [Lck492-500] | enhanced the production of IFN-γ | enhanced the production of IFN-γ | – | –
